Reference: patent publication US10544113B2 (priority 2016, dated 2020)

How the values were obtained:
DOR = test: cAMP assay (adenylyl cyclase inhibition) in HEK-DOR cells; type: cell-based; settings: in the presence of naloxone (20 nM)
Description: (§1) Human embryonic kidney 293 (HEK-293) cells constitutively expressing MOR (HEK-MOR) and DOR (HEK-DOR) (kindly provided by Dr. Ping-Yee Law, University of Minnesota, USA) were cultured in high-glucose Dulbecco's modified Eagle's medium (DMEM, GIBCO) supplemented with 400 μg/mL G418 (Sigma), 2 mM L-glutamine and P/S/F (100 units/mL penicillin, 100 μg/mL streptomycin, 10% fetal bovine serum). Chinese hamster ovary (CHO)-K1 cells, stably expressing hMOR and Gα15 (CHO-K1/MOR/Gα15), were cultured in F12 medium (GIBCO) supplemented with 10 μg/mL Hygromycin B (Invivogen), 20 μg/mL Zeocin (Invivogen) P/S/F (100 units/mL penicillin, 100 μg/mL streptomycin, 10% fetal bovine serum). The cultures were incubated at 37° C. in a humidified 5% CO2 incubator.
(§2) Briefly, 2000 HEK-MOR cells or HEK-DOR cells were plated in 10 μL/well of DMEM in 96-well solid bottom white plates and 10 μL/well compound in HBSS in the presence with 1 μM forskolin and 100 μM 3-isobutyl-1-methylxanthine (IBMX). After 30 minutes of incubation at room temperature, 10 μL/well of labeled d2-cAMP and 10 μL/well of anti-cAMP antibody (both diluted in lysis buffer) were added to each well. Two hours later, plates were measured using the FlexStationIII (Molecular Devices Corp.) with excitation at 330 nm and emissions of 620 nm and 665 nm.
To characterize of novel opioid receptor AAMs, the activity and selectivity of compound 58 were tested by inhibiting adenylyl cyclase activity (i.e., cAMP assay).
Opoid receptors inhibit adenylyl cyclase activity through Gi/o family of heterotrimeric G proteins. A cAMP-accumulation assay was performed to determine whether opioid receptor AAMs affect a G protein-dependent signaling pathway.

B6 mice = test: Tail-flick test; type: in vivo, mouse
Description: In an exemplary in vivo method, a test compound and a MOR antagonist are injected into a mouse pain model (for example, intravenous but not limited), basal latencies are recorded before the treatment and test latencies are recorded at various specified times after the injection, and a time-response curve is recorded and AUC values are calculated to determine whether an analgesic effect is exerted on the mouse. The test compound is confirmed to be an antagonist-to-agonist allosteric modifier of the MOR upon observation of an analgesic effect.
Male wild-type (WT) B6 mice (25-30 g) were kept in a temperature-controlled animal room with a 12-h light/dark cycle. The protocol has been approved by the Institutional Animal Care and Use Committee of the National Health Research Institutes, Taiwan. Animal experiments were carried out in accordance with the Policies on the Use of Animals in Neuroscience Research and the ethical guidelines for investigations of experimental pain in conscious animals, International Association for the Study of Pain. Tail-Flick Analgesia Meter (Columbia Instruments) was used to measure the tail-flick latencies of mice. The cut-off time for each measurement was 10 s to avoid tissue damage. Basal latencies were recorded before treatment and test latencies were recorded 30, 60, 90, 120 and 180 min after an intravenous injection of drugs. […] ED50 values were determined by the up-and-down method reported in Crocker et al., Pharmacol Biochem Behav, 1984, 21, 133-136.
An in vivo study, i.e., tail-flick test, was performed to investigate whether AAMs could change innate character of μ-opioid receptor in the presence of naloxone. […] In mice injected with naloxone (10 mg/kg; s.c.), the ED50 value of compound 58 in inhibition of the tail-flick response was determined to be 23.1±7.1 nmole.

MOR = MOR (Rattus norvegicus, UniProt P33535); test: cAMP assay (adenylyl cyclase inhibition) in HEK-MOR cells; type: cell-based
Description: as §1
as §2, with “nm. […]” for “nm.”

MOR, sequence (P33535 whole entry, looked up): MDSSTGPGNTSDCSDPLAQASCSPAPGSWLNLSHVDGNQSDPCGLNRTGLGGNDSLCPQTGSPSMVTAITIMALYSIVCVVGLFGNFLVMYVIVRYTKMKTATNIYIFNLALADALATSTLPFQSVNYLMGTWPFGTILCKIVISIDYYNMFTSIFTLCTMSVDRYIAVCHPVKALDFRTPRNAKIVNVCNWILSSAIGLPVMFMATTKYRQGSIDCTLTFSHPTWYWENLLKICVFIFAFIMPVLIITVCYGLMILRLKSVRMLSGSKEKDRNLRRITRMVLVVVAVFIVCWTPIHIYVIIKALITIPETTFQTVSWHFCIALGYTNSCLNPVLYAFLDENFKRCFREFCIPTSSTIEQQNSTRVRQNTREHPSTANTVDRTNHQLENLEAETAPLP

Cc1cc(C(=O)O)ccc1N1C(=O)CSC1c1ccc(F)cc1 (stereo not drawn)
effect on adenylyl cyclase activity (DOR): produced no effect | AUC of tail-flick inhibition (B6 mice; 12.5 nmole i.t. with naloxone (10 mg/kg; s.c.)): 241.5±111.3 min×s | AUC of tail-flick inhibition (B6 mice; 25 nmole i.t. with naloxone (10 mg/kg; s.c.)): 560.6±96.5 min×s | AUC of tail-flick inhibition (B6 mice; 50 nmole i.t. with naloxone (10 mg/kg; s.c.)): 649.8±123.3 min×s | antinociceptive effect, compound alone (B6 mice; B6 mice, 50, 25, 12.5 and 6.25 nmole i.t., no naloxone): didn't exhibit any antinociceptive effects | ED50 in inhibition of the tail-flick response (B6 mice; mice injected with naloxone (10 mg/kg; s.c.), compound i.t.): 23.1 ± 7.1 nmol | antinociception effect in mice injected with saline (B6 mice; saline, highest dose 50 nmole i.t.): no antinociception effect was observed | selectivity mu over delta opioid receptor (MOR; HEK-MOR vs HEK-DOR, with naloxone (20 nM)): selective for mu-over delta-opioid receptors | inhibition of adenylyl cyclase activity (MOR; HEK-MOR, combined with naloxone (20 nM)): significantly inhibited adenylyl cyclase activity
